Experimental data taken from US20250375422A1, “METHOD FOR TREATING CANCERS” (Acura Nanomedicine Corporation, priority 2019, published 2025).

Tested on: BxPC-3 cells
Experiment: MTT assay, cell viability of pancreatic cancer BxPC-3 cells
Type: cell-based, human
Procedure: Cell lines used in the present disclosure include human pancreatic cancer cell lines BxPC-3, Mia-Paca-2/R (gemcitabine resistant cell line), and Panc-1/R (gemcitabine resistant cell line); human liver cancer cell lines SK-Hep-1 and Hep 3B; and human brain glioblastoma cell line GBM8401, which is a TMZ-resistant cell line. Cells were cultured in Dulbecco's modified Eagle media (DMEM) supplemented with 10% heat inactivated fetal bovine serum (FBS), 50 units/mL penicillin G, 50 μg/mL streptomycin (pH 7.4), and the cells were maintained in humidified environment comprising 5% CO2/95% air at 37° C.
The absorbance of the solution at 570 nm was measured by spectrophotometer.

SMILES | cell viability of BxPC-3 cells (HCQ (20 or 50 μM) alone) | viability at 5 µM (Homo sapiens, BXPC-3, MBZ (5 μM)) [%]
CCN(CCO)CCCC(C)Nc1ccnc2cc(Cl)ccc12 (centres unmarked) [HCQ, hydroxychloroquine] | slightly and/or unaffected | –
COC(=O)Nc1nc2ccc(C(=O)c3ccccc3)cc2[nH]1 [MBZ, mebendazole] | – | ~60
